Measurements published in patent US20220193076A1, “METHODS OF TREATING BREAST CANCER WITH TUCATINIB” (Seagen Inc., priority 2019, published 2022).
Several values for one entry are separate records, joined by “and”; a condition that tells them apart may be missing. Identical values can stand only once.

Legend:
[1] = molecular target: T1, organic cation transporter (OCT)2 (Homo sapiens, UniProt O15244); assay: In vitro inhibition of OCT2 activity; format: in vitro ADME; details: read-out: 50% inhibitory concentration (IC50), OCT2
T1 sequence (O15244 1-555): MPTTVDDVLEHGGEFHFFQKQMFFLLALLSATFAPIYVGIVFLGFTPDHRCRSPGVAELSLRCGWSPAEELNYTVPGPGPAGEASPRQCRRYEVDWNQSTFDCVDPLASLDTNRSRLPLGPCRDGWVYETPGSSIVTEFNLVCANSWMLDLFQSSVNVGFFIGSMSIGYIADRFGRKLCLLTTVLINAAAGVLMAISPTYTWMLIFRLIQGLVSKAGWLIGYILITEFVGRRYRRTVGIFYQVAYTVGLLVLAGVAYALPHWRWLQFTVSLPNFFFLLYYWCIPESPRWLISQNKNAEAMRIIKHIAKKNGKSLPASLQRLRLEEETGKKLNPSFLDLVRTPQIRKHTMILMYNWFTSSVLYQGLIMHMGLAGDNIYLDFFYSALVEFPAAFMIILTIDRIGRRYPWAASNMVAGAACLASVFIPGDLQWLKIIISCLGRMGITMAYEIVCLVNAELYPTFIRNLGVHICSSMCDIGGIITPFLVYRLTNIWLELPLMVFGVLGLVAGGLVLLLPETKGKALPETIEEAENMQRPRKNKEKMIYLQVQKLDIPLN

[2] = Example 1: plasma tucatinib trough concentrations; format: in vivo, human; details: 300 mg tucatinib bid from Day 2
[3] = Predicted hepatic metabolic stability across species; format: in vitro ADME
CYP3A4 = CYP3A4 (Homo sapiens, UniProt P08684); assay: Ki determination in pooled human liver microsomes, midazolam 1'-hydroxylase (Example 5); format: in vitro ADME
Protocol: (§1) The objective of this study was to evaluate in vitro the Ki of tucatinib of the following human hepatic cytochrome P450 (CYP) enzymes (CYP2C8, CYP2C9, and CYP3A4) and UGT1A1. […] Pooled human liver microsomes (HLM) from 150 individuals (79 males and 71 females) were obtained from BioreclamationIVT (Baltimore, Md.) and stored at approximately −70° C. The microsomes were characterized by the supplier for total protein and selected cytochrome P450 activities. […] The final organic solvent contribution was ≤1%. Incubations were terminated by the addition of chilled acetonitrile containing a stable isotope-labeled internal standard. […] Samples were analyzed by liquid chromatography with tandem mass spectrometry (LC-MS/MS). Analyte concentrations were quantified by LC-MS/MS and interpolated from standard curves of authentic analyte. […] Activities were calculated based on analyte concentration, incubation time, and protein concentration. Enzymatic activity (pmol/minute/mg protein) was expressed as the formation of the analyte per final protein concentration per incubation time. Activity remaining was expressed as the enzymatic activity at each concentration point of the test article normalized by the solvent control mean activity. […]

UGT1A1 = molecular target: T2, UGT1A1 (Homo sapiens, UniProt P22309); assay: Ki determination in pooled human liver microsomes, β-estradiol 3-glucuronidation (Example 5); format: in vitro ADME
T2 construct: tissue BioreclamationIVT (Baltimore, Md.); host or cells: pooled human liver microsomes, 150 donors
T2 sequence (P22309 26-533): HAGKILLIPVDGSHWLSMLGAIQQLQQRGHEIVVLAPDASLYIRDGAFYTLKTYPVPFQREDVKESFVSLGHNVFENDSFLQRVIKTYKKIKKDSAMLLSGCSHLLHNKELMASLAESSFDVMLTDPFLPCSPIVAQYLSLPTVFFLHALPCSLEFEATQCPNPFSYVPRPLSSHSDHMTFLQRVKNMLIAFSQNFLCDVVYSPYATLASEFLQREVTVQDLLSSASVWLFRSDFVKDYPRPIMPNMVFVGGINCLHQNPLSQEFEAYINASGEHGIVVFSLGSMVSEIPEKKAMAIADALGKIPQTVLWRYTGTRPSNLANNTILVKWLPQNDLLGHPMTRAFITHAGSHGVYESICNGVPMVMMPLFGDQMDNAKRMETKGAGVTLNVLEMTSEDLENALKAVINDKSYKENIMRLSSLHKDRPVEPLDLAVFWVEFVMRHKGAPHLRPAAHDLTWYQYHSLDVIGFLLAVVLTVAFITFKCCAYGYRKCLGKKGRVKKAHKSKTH
Protocol: as §1

P-glycoprotein (P-gp) = P-glycoprotein (P-gp) (Homo sapiens, UniProt P08183); assay: P-gp substrate assessment and inhibition of P-gp-mediated efflux of digoxin; format: in vitro ADME
CYP3A4 and CYP2C8 = assay: Example 2 Part B: effect of inducer rifampin on PK of tucatinib; format: in vivo, human; details: tucatinib 300 mg single dose in combination with rifampin vs tucatinib alone
Protocol: They were discharged on Day 12 after completion of the in-patient assessments. […] On Day 3 through Day 11, each subject received single oral doses of 600 mg of rifampin once daily (QD). On Day 10, each subject received a single oral dose of 300 mg of tucatinib. […] Other noncompartmental PK parameters may be reported. Additionally, blood samples were collected for determination of trough levels of rifampin prior to morning dosing on the days indicated in FIG. 6.

MATE1/2K = assay: Phase 1 drug-drug interaction study: effect of tucatinib on metformin pharmacokinetics (Example 1); details: healthy subjects, tucatinib 300 mg bid

Sequence of CYP3A4 (P08684 whole entry): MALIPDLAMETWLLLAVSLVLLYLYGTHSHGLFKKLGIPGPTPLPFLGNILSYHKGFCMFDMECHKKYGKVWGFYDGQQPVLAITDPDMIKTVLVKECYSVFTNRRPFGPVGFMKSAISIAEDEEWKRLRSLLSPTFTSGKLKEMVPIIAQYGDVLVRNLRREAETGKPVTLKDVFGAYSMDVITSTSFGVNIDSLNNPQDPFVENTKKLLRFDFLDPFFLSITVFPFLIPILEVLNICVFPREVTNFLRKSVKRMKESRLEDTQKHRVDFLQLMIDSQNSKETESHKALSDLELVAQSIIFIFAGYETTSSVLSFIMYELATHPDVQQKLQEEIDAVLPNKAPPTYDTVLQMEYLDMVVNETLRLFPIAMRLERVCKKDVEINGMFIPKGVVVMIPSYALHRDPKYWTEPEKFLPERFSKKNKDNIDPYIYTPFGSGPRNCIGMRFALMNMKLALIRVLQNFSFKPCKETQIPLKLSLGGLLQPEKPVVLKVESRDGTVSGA
Sequence of P-glycoprotein (P-gp) (P08183 whole entry): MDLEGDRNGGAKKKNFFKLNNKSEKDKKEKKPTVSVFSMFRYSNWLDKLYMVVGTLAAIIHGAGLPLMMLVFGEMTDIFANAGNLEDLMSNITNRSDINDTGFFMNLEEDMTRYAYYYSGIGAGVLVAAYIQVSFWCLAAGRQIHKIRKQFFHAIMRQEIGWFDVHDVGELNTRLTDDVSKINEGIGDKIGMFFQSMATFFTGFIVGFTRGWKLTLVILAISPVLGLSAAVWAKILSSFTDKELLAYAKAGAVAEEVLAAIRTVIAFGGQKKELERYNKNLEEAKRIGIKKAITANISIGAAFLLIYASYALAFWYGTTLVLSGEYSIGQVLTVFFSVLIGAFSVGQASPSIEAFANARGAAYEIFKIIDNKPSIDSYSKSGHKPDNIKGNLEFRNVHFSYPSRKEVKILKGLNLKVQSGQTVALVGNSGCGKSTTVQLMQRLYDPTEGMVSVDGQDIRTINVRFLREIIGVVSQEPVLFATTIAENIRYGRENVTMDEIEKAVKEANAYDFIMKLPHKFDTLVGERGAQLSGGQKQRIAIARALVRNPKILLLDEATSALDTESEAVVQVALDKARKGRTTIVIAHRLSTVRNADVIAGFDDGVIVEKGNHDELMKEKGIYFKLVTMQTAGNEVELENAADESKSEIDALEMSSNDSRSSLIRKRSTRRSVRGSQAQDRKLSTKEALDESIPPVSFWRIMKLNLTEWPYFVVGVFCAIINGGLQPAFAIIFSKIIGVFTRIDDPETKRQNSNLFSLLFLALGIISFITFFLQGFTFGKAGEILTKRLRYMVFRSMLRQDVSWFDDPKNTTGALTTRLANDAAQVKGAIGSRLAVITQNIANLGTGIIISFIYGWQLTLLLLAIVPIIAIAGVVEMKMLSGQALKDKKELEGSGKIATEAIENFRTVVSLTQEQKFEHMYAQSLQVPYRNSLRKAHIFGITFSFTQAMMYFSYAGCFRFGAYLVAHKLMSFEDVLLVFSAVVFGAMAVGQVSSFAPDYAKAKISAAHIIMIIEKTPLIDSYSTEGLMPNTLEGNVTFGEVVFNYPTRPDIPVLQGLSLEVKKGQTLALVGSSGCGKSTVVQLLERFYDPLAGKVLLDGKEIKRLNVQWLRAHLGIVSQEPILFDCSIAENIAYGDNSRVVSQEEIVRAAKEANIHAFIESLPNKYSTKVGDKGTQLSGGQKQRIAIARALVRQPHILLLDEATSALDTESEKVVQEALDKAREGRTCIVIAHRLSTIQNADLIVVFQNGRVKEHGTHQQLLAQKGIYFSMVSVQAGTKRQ

## Cc1cc(Nc2ncnc3ccc(NC4=NC(C)(C)CO4)cc23)ccc1Oc1ccn2ncnc2c1 [tucatinib]
[1]
  IC50: 14700 nM
[2]
  Steady-state plasma concentrations reached by: ≤ 6 days
[3]
  Stability with respect to hepatic metabolism: good-to-moderate stability
CYP3A4
  Inhibition mechanism, CYP3A4: competitive inhibition
CYP3A4; marker substrate midazolam
  Ki: 810 nM and 805 nM
UGT1A1
  Inhibition mechanism, UGT1A1: competitive inhibition
UGT1A1; marker substrate β-estradiol
  Ki: 1810 nM
P-glycoprotein (P-gp)
  IC50: 10000 to 30000 nM
  P-gp substrate status: P-glycoprotein (P-gp) substrate
CYP3A4 and CYP2C8
  Geometric LS mean ratio (90% CI), AUC0-∞: 0.520 (0.452, 0.597)
  Geometric LS mean ratio (90% CI), AUClast: 0.517 (0.449, 0.596)
  Geometric LS mean ratio (90% CI), Cmax: 0.632 (0.531, 0.753)
MATE1/2K
  Inhibition of the renal OCT2/MATE1/MATE2-K pathway in vivo: weak inhibitor
